{
  "source": "patent US11618747B2",
  "about": "“LXR modulators with bicyclic core moiety” (OrsoBio, Inc., priority 2018, dated 2023)",
  "key": {"[1]": {"experiment": "Pharmacokinetics in mice after single oral dosing (blood/plasma and liver exposure)", "assay_type": "in vivo, mice (C57/bl6/J)", "method": "The pharmacokinetics of the compounds was assessed in mice after single dosing and oral administrations. Blood/plasma and liver exposure was measured via LC-MS.\nThe study design was as follows:\nAnimals: C57/bl6/J (Janvier) males\nDiet: standard rodent chow\nAnimal handling: animals were withdrawn from food at least 12 h before administration\nDesign: single dose oral administration, n=3 animals per group\nSacrifice: at stated time point (4, 12 or 24 h) after administration\nBioanalytics: LC-MS of liver and blood/plasma samples"}, "[2]": {"conditions": "human liver microsomal assay; cited from earlier work"}, "[3]": {"conditions": "rat liver microsomal assay; cited from earlier work"}, "[4]": {"conditions": "20 mg/kg single oral dose, time point 4 h"}},
  "note": "Read-outs that look alike come from different tables or passages of the source.",
  "data": [
    {"smiles": "Cc1cc(C)c(S(=O)(=O)N(Cc2ccc(-c3cccc(S(C)(=O)=O)c3)cc2)Cc2ccc(C(F)(F)F)o2)c(C)c1", "note": "[GSK2033, reference compound]", "values": [
      {"measurement": "blood/plasma exposure (below LLOQ, LLOQ given)", "setting": "[1]; [4]", "result": "(14.4 ng/mL)"},
      {"measurement": "liver exposure (below LLOQ, LLOQ given)", "setting": "[1]; [4]", "result": "(9.6 ng/mL)"},
      {"measurement": "oral bioavailability (in words)", "setting": "[1]; oral administration", "result": "not orally bioavailable"},
      {"measurement": "clearance (Clint)", "setting": "[2]", "result": "> 1.0", "unit": "mL/min/mg protein"},
      {"measurement": "clearance (Clint)", "setting": "[3]", "result": "> 1.0", "unit": "mL/min/mg protein"}
    ]}
  ]
}
